Results taken from US10703971B2, “Chemiluminescent substrates” (Beckman Coulter, Inc., priority 2016, dated 2020).

Assays:
alkaline phosphatase [1] = test: Alternative cationic aromatic compounds, Imax on Turner 20/20e luminometer; details: compound used as cationic aromatic compound (CAC) in the formulation
alkaline phosphatase [2] = test: Stability Test A: luminescence of the AP substrate formulation in a micro-titer plate after injection of AP; type: biochemical; details: 50% more of the named component added to a single lot of APS-5
Description: An aliquot (100 μL) of AP substrate formulation was added to a micro-titer plate well (8 replicates for each formulation). The plate was placed in a luminescence plate reader (Luminoskan, Labtech) and to each well was injected 20 μL of AP solution (2 ng/mL). Luminescence signal was read after 30 seconds and intergraded for 2 seconds.

[3] = test system: Beckman Coulter System Check ALP; test: Stability of chemiluminescent compounds I in two buffer systems, signal RLU of samples stored at two temperatures; type: biochemical
Description: 3.25 mg/L Lucigenin, 10 mg/L Sodium Sulfite. The second was based on the present invention and included AMPD 0.1 M pH 9.70 containing 0.5 g/L STS, 1 g/L PEG (Mw=35,000), 3.25 mg/L Lucigenin, 10 mg/L Sodium Sulfite. Various chemiluminescent compounds I shown below were added to 200 mL aliquots of each buffer at 0.15 g/L.
Each formulation was split into ˜100 mL halves with one kept at ˜5° C. and the other kept at −30° C.
Material was tested periodically over two weeks measuring the relative change in signal RLU between the two storage conditions. Formulations were tested in 96-well plates by comparing samples at stored at two temperatures to reduce the variability associated with enzymes/temperature/day to day. The samples were incubated at 37° C. for 30 minutes on the instrument 20 uL of enzyme (prepared by mixing 1 mL of Beckman Coulter System Check ALP with 640 mL of the Sample Diluent Buffer) were injected into 200 uL of formulation. Kinetic signal was measured at ˜29 seconds after injection of ALP solution. 15-16 data points (wells) were measured for each Buffer/Temperature/Time point (Well A1 is excluded due to variation in injection volume).

| SMILES | I max RLU (Turner 20/20e luminometer with filter) (alkaline phosphatase [1]) | further results |
| --- | --- | --- |
| C[n+]1c2ccccc2c(-c2c3ccccc3[n+](C)c3ccc(Cl)cc23)c2ccccc21 | 1600 RLU | – |
| C[n+]1ccc2c(c1-c1c3c(cc[n+]1C)=CCCC=3)=CCCC=2 | 41 RLU | – |
| CCCCCCCCCCCCOS(=O)(=O)[O-].[Na+] [SDS, sodium dodecyl sulfate] | – | Performance (alkaline phosphatase [2]): 70.5% |
| C1=c2cc[n+]3c(c2=CCC1)-c1c2c(cc[n+]1CC3)=CCCC=2 | 500 RLU | – |
| CN1c2ccccc2C(=C(OP(=O)(O)O)Sc2ccccc2)c2ccccc21 [Compound 3] | – | Signal Loss at 30° C. (slope, % loss/Day) ([3]; 0.15 g/L compound in AMPD buffer system (AMPD 0.1 M pH 9.70, STS, PEG 35,000, lucigenin, sodium sulfite)): 0.53% loss/Day; Signal Loss at 30° C. (slope, % loss/Day) ([3]; 0.15 g/L compound in TRIS-Tween buffer system (Tris 0.3 M pH 9.35, SDS, Tween-20, lucigenin, sodium sulfite)): 0.61% loss/Day |
| C[n+]1c2ccccc2c(-c2c3ccccc3cc3ccccc23)c2cc(Cl)ccc21 | 1037 RLU | – |
| C[n+]1c2ccccc2c(-c2c3ccccc3[n+](C)c3ccc(Cl)cc23)c2cc(Cl)ccc21 | 454 RLU | – |
| O=S([O-])[O-].[Na+].[Na+] [Sodium Sulfite, sodium sulfite] | – | Performance (alkaline phosphatase [2]): 100.1% |
